# Tests used:
# [1] = tested on: RAW-264.7 monocyte macrophage cells; test: NO production, nitrite plus nitrate, in macrophages; format: cell-based; details: 0.1 mM paraquat, 24 hours
# Experimental: (§1) The RAW-264.7 monocyte macrophage cells line (TIB-71) was purchased from the American Type Culture Collection (Manassas, Va.). The cells were grown in T-75 flasks containing DMEM (Gibco-BRL, Grand Island, N.Y.) supplemented with 1 mM pyruvate, 4.5 g/L glucose and […] fetal bovine serum Macrophages were plated at 2.0×10^4 cells/well in 24-well plates and experiments were performed when cells were near confluence. Macrophages were immunostimulated with 50 ng/ml lipopolysaccharide (LPS) from E. coli serotype 0111:B4 (Signia, St. Louis, Mo.) and 50 U/ml recombinant mouse interferon gamma (INF-γ, R&D Systems, Minneapolis,Minn.). Macrophages were used between passages 2-8. Cell cultures were kept in a 37° C. incubator with air and 5% carbon dioxide.
# (§2) NOS2 was induced in RAW cells using a mixture of interferon-γ and lipopolysaccharide (LPS) referred to as "cytomix." Unstimulated (basal) and activated (cytomix) macrophages were treated with 0.1 mM paraquat or not treated with paraquat and cytotoxicity and NO production were assessed at 24 hours.
# NO production, assessed by measuring the accumulation of the NO metabolites nitrite and nitrate 24 hours after cytomix treatment, is shown in FIG. 4(b). […] NOS2 expression was not affected (data not shown).
# (§3) To further exclude the role of peroxynitrite, macrophages were treated with increasing concentrations of the NO-donor, DETA NONOate in the presence of 0.1 mM paraquat. Macrophage cytotoxicity and NO release were assessed 24 hours after treatments. Cell injury was assessed by measuring LDH release.
# [2] = tested on: RAW-264.7 monocyte macrophage cells; test: LDH release from macrophages (cytotoxicity); format: cell-based
# Experimental: as §1, §2
# Cell injury was assessed by measuring LDH release.
# as §3
# [3] = tested on: CPA-47 endothelial cell line; test: LDH release from endothelial cells (cytotoxicity); format: cell-based; details: 2 mM paraquat, 24 hours; FIG. 2(b)
# Experimental: To test whether the above effect was present in intact cells, endothelial cell cultures, constitutively expressing NOS3 protein as determined by western blot analysis, were treated with 2 mM paraquat in the presence of increasing concentrations of either L-NAME or L-NMMA.
# The endothelial cells were obtained as follows: CPA-47 endothelial cell line (CRL-1733) was purchased from American Type Culture Collection (Manassas, Va.). Endothelial cells were grown in T-75 flasks containing Ham's F-12 K medium supplemented by 1 mM […] and 10% equine serum (Gibco-BRL, Grand Island, N.Y.). Endothelial cells were plated at 3.5×10^4 cells/well in 24-well plates and experiments were performed 48 hours later when cells were near confluence. Medium was changed to minimal essential medium without serum supplement. Endothelial cells were from passages 30-36.
# Cytotoxicity was measured as the percent release of LDH and compared to vehicl-treated cells (basal). The percent release of cytosolic lactate dehydrogenase (LDH) into the culture medium was used to assess the integrity of the cell membrane. LDH activity was measured by following the loss of NADH at 340 nm as described in Day, B. J., et al., J. Pharmacol. Exp. Ther. 275, 1227-1232 (1995). The percent release of LDH into the culture medium 24 hours after the paraquat treatment was used to assess cell injury.
# [4] = tested on: Rabbit aortic rings; test: Exogenous NO-induced relaxation of aortic rings; details: 2 mM paraquat, phenylephrine 1 μM; FIG. 3(b)
# Experimental: New Zealand white male rabbits weighting 3-4 kg were anaesthetized with phenobarbital (30 mg/kg/iv). The descending thoracic aorta was isolated and placed in Krebs-Henseleit buffer (pH 7.4) and stored at 4° C. until used. The vessels were cut into 5 mm rings and submerged in 25 ml double jacketed tissue baths containing Krebs-Henseleit buffer bubbled with 95% oxygen and 5% carbon dioxide at 37° C. Rings were hung on stainless steel stirrups connected to calibrated force transducers. Rings were equilibrated with 2 g resting tension for 1 hour before use and contracted with phenylephrine (1 μM). Rings were incubated with paraquat for 15 minutes before acetylcholine-induced or exogenous relaxations were performed.
# In another case, rabbit aortic rings were constricted with 1 μM phenylephrine (initial contraction) and relaxed with increasing concentration of NO in the presence or absence of 2 mM paraquat. The results are shown in FIG. 3(b) where relaxations are expressed as a percent of the initial phenylephrine-induced contraction.
# [5] = molecular target: T1, Recombinant rat neuronal nitric oxide synthase (NOS1) (Rattus norvegicus, UniProt P29476); test: NO formation by NOS1, total nitrite and nitrate (colorimetric); format: biochemical
# T1 construct: purchased Oxis, Portland, Oreg
# T1 sequence (P29476 whole entry): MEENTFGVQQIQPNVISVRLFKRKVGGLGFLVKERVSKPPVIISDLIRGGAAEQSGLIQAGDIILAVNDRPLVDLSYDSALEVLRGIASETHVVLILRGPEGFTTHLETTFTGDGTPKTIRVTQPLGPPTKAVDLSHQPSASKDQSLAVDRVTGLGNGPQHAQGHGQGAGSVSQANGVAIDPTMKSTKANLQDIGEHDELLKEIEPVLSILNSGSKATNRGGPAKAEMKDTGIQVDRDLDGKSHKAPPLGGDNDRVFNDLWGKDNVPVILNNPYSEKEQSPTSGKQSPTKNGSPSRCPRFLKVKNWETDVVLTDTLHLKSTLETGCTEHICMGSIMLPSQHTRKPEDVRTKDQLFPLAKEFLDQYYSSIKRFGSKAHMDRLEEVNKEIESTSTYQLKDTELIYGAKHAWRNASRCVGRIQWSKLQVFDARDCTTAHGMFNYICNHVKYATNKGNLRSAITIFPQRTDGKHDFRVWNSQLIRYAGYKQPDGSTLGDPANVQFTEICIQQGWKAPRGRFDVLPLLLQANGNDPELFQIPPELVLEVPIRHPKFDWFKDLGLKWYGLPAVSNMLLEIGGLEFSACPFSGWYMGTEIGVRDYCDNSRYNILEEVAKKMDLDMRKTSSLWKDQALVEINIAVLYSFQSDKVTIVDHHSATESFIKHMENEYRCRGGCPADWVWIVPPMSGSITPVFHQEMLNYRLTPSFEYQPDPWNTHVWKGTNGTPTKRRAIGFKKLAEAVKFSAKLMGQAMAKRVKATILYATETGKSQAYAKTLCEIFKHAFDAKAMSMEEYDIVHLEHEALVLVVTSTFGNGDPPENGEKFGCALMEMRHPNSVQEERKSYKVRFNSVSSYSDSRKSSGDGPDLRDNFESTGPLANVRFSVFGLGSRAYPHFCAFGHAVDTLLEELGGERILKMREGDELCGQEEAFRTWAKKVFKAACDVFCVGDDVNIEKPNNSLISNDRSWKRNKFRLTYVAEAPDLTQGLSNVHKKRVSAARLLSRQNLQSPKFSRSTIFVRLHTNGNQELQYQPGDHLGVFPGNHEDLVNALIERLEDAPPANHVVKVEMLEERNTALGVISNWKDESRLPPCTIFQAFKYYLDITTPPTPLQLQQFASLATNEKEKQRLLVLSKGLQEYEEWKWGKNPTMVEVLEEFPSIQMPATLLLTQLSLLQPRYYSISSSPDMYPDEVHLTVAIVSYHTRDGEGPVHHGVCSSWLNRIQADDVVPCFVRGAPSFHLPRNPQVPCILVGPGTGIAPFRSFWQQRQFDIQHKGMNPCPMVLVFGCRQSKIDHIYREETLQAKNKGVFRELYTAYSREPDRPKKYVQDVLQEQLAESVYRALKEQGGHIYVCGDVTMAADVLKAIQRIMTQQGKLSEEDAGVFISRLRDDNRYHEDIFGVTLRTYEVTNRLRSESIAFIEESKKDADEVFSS
# Experimental: Recombinant rat neuronal nitric oxide synthase (NOS1, Oxis, Portland, Oreg.), a constitutive enzyme, was used to assay NADPH oxidation in the presence of increasing concentrations of paraquat. Reactions (0.2 ml) were performed in bis-tris propane buffer (40 mM) containing L-arginine (1 mM), CaCl2 (1.2 mM), EDTA (0.9 mM), NADPH (0.35 mM), dithiothreitol (3 mM), tetrahydrobiopterin (4 μM), catalase (1 μg/ml) and calmodulin (200 U/ml) at pH 7.4. Reactions were initiated by the addition of 1.5 U of NOS1, and the oxidation of NADPH was continuously monitored at 340 nm for 1 minute at 37° C. in a plate reader. The rate of NOS-mediated NADPH oxidation was determined using an extinction coefficient of 6.22 mM^-1 cm^-1 after subtracting the baseline of NADPH oxidation.
# The same microtiter plates used above were left at room temperature for 5 hours and then an aliquot was assayed for total nitrite and nitrate. Nitrite and nitrate were assayed using a non-enzymatic colorimetric kit (NB-88, Oxford Biomedical Research, Oxford, Mich.). NADPH oxidation was stopped after 5 hours by addition of 25 μl of zinc sulfate (30% w/v) to precipitate the NOS protein. Nitrate was non-enzymatically converted to nitrite by overnight incubation of 150 μl of reaction mixture from the NADPH oxidation assay with cadmium beads. Nitrite concentration was determined from a standard curve using 100 μl sample or standard. As shown FIG. 1(b), the formation of NO was inhibited by paraquat.
# [6] = tested on: restenosis; test: Working Example VIII: restenosis patient; format: in vivo, human; details: 10 mg locally instilled via balloon, repeat angioplasty
# Experimental: A person undergoes angioplasty of the left anterior descending coronary artery. Two weeks following procedure, they present with chest pain and the radiographic evidence of restenosis. They undergo repeat angioplasty with infusion of paraquat (dosage of 10 mg), locally instilled under pressure via the balloon.
# [7] = tested on: squamous cell carcinoma; test: Working Example VI: mouth squamous cell carcinoma patient; format: in vivo, human; details: 5 cc swish and spit, 100 μM
# Experimental: A mouth lesion is noted in a smoker during a routine dental visit. The lesion is found to be a squamous cell carcinoma. […] The patient is given a 5 cc solution of paraquat swish and spit (at a dose of 100 μM).
# [8] = tested on: NOS2; test: NOS2 expression in macrophages; format: cell-based; details: 0.1 mM paraquat, cytomix; data not shown
# Experimental: as §1, §2
smiles,measurement,setting,value
C[n+]1ccc(-c2cc[n+](C)cc2)cc1 [paraquat],formation of NO metabolites from DETA NONOate,[1]; FIG. 4(d),does not alter the formation of NO metabolites from DETA NONOate
same,percent decrease in nitrite and nitrate compared with percent increase in cell death,[1]; cytomix-activated,percent decrease in nitrite and nitrate was greater than percent increase in cell death
same,NO production (nitrite and nitrate),"[1]; cytomix-activated, FIG. 4(b)",significantly attenuated NO production
same,"cell injury (LDH release), single treatment","[2]; 0.1 mM paraquat or cytomix alone, 24 hours, FIG. 4(a)",very little cell injury
same,paraquat-induced cytotoxicity in activated macrophages,"[2]; 0.1 mM paraquat plus cytomix, 24 hours, FIG. 4(a)",potentiated in cytokine-activated macrophages
same,effect of paraquat on DETA NONOate-induced cell injury,"[2]; 0.1 mM paraquat, higher DETA NONOate concentrations, 24 hours, FIG. 4(c)",DETA NONOate-induced cell injury was attenuated by paraquat
same,"cell killing / amelioration of toxicity, conclusion",[2]; conclusion of Background Example 4,kills cells containing NOS but not cells that do not
same,increase in LDH release,[3],three-fold
same,effect on exogenously added NO-induced relaxation,[4],did not inhibit exogenously added NO-induced relaxation
same,NO formation (accumulation of nitrite and nitrate),"[5]; FIG. 1(b), 5 hours at room temperature",concentration dependent decrease in NO formation
same,IC50,"[5]; concentration that inhibited NO formation by 50%, 95% confidence level 47-82 μM, 5 hours, read-out: IC50, inhibition of NO formation",62 µM
same,NOS activity,[5]; conclusion of Background Example 1,inhibits NOS activity
same,restenosis or angina,[6],without further episode of restenosis or angina
same,adverse effect,[7],complicating oral ulcerations
same,tumor regression,[7]; seven days,tumor is found to have regressed
same,NOS2 expression,[8],not affected

# — US6231894A, “Treatments based on discovery that nitric oxide synthase is a paraquat diaphorase” (Duke University, priority 1999, dated 2001)
